Values joined by “and” are separate entries in the source; they are usually repeats but may differ in a detail not shown here. Equal values may be shown once. Read-outs that look alike come from different tables or passages of the source. Marks after values point to notes of the source that are not given here.
Experiments:
[1] = Cytotoxicity on MRC-5 fibroblasts (resazurin); assay type: cell-based, human; conditions: human
Method: Cytotoxicity assays were performed on MRC-5SV2 (Sigma-Aldrich/ECACC, catalogue number 84100401) human embryonic lung fibroblasts, which were cultured in minimum essential medium with Earle’s salt medium, supplemented with L-glutamine, NaHCO3 and 5% inactivated foetal calf serum. All cultures and assays were conducted at 37 °C with 5% CO2. Ten microliters of the aqueous compound dilutions were added to 190 µL of MRC-5SV2 (3 × 10^4 cells mL^−1). Cell growth was compared to untreated control wells (100% cell growth) and medium control wells (0% cell growth). After a 3-day incubation, cell viability was assessed fluorimetrically after the addition of 50 μL resazurin per well (final concentration of 10 µg mL^−1). After 4 h at 37 °C, fluorescence was measured (λex 550 nm, λem 590 nm). The results were expressed as percentage reduction in cell growth/viability compared to control wells and an EC50 was determined.

[2] = test system: B48: pentamidine, diminazene and melaminophenyl arsenical resistant T. brucei line; experiment: microbe, parasite or virus in culture; assay type: cell-based, Trypanosoma brucei brucei; conditions: for EC50: Trypanosoma brucei
[3] = molecular target: Lister 427WT T. b. brucei; experiment: Adenosine deaminase susceptibility (drug sensitivity with/without 2 µM deoxycoformycin); assay type: cell-based, Trypanosoma brucei brucei; conditions: for EC50: Trypanosoma brucei, Lister 427WT, mean ± SEM, n=3
Method: Drug susceptibility tests with Lister 427WT, TbAT1-KO[48], B48[26] and ISMR1[27] were performed using an assay based on the viability indicator dye resazurin in 96-well plates, each well containing 2 × 10^4 cells. The plates were incubated for 48 h with a doubling dilution series of the test compounds in HMI-9/fetal bovine serum at 37 °C/5% CO2 (23 dilutions starting at 100 µM, except for the pentamidine control (50 µM)), after which resazurin (20 µL of 125 µg mL^−1 resazurin sodium salt solution was added to each well (containing 200 µL of cells and test compound)) was added to each well and the plates incubated for another 24 h. Fluorescence was determined using a FLUOstar Optima (BMG Labtech, Durham, NC) and the results fitted to a sigmoid curve with variable slope using Prism 5.0 or Prism 7.04 (GraphPad, San Diego, CA). […]
Adenosine deaminase susceptibility
in the presence or absence of 2 µM 2’-deoxycoformycin. […]

[4] = test system: T. b. rhodesiense STIB-900; experiment: microbe, parasite or virus in culture; assay type: cell-based, Trypanosoma brucei rhodesiense
Method: (§1) Drug susceptibility tests with Lister 427WT, TbAT1-KO[48], B48[26] and ISMR1[27] were performed using an assay based on the viability indicator dye resazurin in 96-well plates, each well containing 2 × 10^4 cells. The plates were incubated for 48 h with a doubling dilution series of the test compounds in HMI-9/fetal bovine serum at 37 °C/5% CO2 (23 dilutions starting at 100 µM, except for the pentamidine control (50 µM)), after which resazurin (20 µL of 125 µg mL^−1 resazurin sodium salt solution was added to each well (containing 200 µL of cells and test compound)) was added to each well and the plates incubated for another 24 h. Fluorescence was determined using a FLUOstar Optima (BMG Labtech, Durham, NC) and the results fitted to a sigmoid curve with variable slope using Prism 5.0 or Prism 7.04 (GraphPad, San Diego, CA).
(§2) Susceptibility assays with T. brucei Squib 427[49] or T. b. rhodesiense STIB-900[50] were performed under similar conditions as above, but using 10 concentrations of a 4-fold compound dilution series starting at 64 µM. Trypanosoma brucei Squib 427 was seeded at 1.5 × 10^4 parasites/well and T. b. rhodesiense at 4 × 10^3 parasites per well, followed by the addition of resazurin (final concentration of 10 µg mL^−1) after 24 h (T. brucei) or 6 h (T. b. rhodesiense).

[5] = test system: ISMR1: isometamidium-resistant T. brucei cell line; experiment: microbe, parasite or virus in culture; assay type: cell-based, Trypanosoma brucei brucei
Method: as §1

[6] = test system: TbAT1-KO: T. brucei cell line lacking the TbAT1(P2) transporter gene; experiment: microbe, parasite or virus in culture; assay type: cell-based, Trypanosoma brucei brucei
Method: as §1

[7] = set-up: method as in earlier work; conditions: ref 36 (Olsen, D. B. et al.), cited from earlier work
[8] = test system: T. b. brucei Lister 427WT; experiment: Drug susceptibility test (resazurin), Lister 427WT; assay type: cell-based, Trypanosoma brucei brucei; conditions: Trypanosoma brucei
Method: as §1

T. brucei Squib 427 = experiment: microbe, parasite or virus in culture; assay type: cell-based, Trypanosoma brucei brucei; conditions: for EC50: Trypanosoma brucei
Method: as §1, §2

[9] = test system: Nc1ncnc2c1ncn2[C@@H]1O[C@H](CO)[C@@H](O)[C@H]1O; experiment: cells, lysate or membranes; conditions: other: mean ± SEM, n = 3; pH 7.3
Method: Non-specific association of radiolabel with the cell pellet was determined using an identical incubation in the presence of saturating (1 mM) unlabelled adenosine.

[10] = substrate: Nc1ncnc2c1ccn2[C@@H]1O[C@H](CO)C[C@H]1O; experiment: ADKIN assay (phosphorylation by purified recombinant enzyme, HPLC); assay type: biochemical, Trypanosoma brucei; conditions: other: first phosphorylation step; mean and SE, n = 3; pH 7.5
Method: The T. brucei ADKIN enzyme was diluted in a buffer containing 0.05% (v/v) Tween-20, 50 mM KCl, 0.1 mM dithiothreitol, and 50 mM Tris-HCl, pH 7.5 (dilution buffer), prior to use in the assay. The final assay mixture contained 12.5 ng T. brucei ADKIN, a range between 50 and 1000 µM of nucleoside 9 (or 1000 µM deoxyadenosine in the control reaction), 100 mM KCl, 10 mM MgCl2, 0.5 mM ATP, 5 mM potassium phosphate and 50 mM Tris-HCl, pH 7.5. The assay was incubated at 37 °C for 30 min, and subsequently heated for 2 min at 100 °C to inactivate the enzyme, diluted with 2 volumes of water, centrifuged through a Nanosep 3k Omega filter and mixed 1:1:2 with water and mobile phase. The HPLC analysis was performed on a 2.1 × 150 mm ACE Excel C18 column using a mobile phase composition 4A:76B:20C (see nucleotide pool analysis, Supplementary Information for details). Using these conditions, consecutive samples could be loaded (Supplementary Fig. 12). After 4–5 samples, the column was washed with high percent A (80A:20C) to remove bound ADP and ATP before re-equilibrating the column to original conditions.

With Nc1ncnc2c1ccn2[C@@H]1O[C@H](CO)[C@@H](O)[C@H]1O [Compound 6, Tubercidin, reference compound] the EC50 at 3 day ([1]; cytotoxicity in human MRC-5 fibroblasts, mean and SEM, read-out: MRC-5 EC50) was 2200 ± 700 nM, the EC50 at 3 day ([1]; source data, read-out: MRC-5 EC50, Average) was 2230 nM and the “RF (B48)” value [2] was 28.7*. The EC50 ([2]; mean and SEM, n = 3, read-out: B48 EC50) was 4300 ± 1300 nM, the EC50 ([2]; source data, read-out: B48 EC50, AVG) was 4340 nM and the “effect of adenosine deaminase inhibition (2’-deoxycoformycin) on EC50” value [3] was “not significantly affected”. The EC50 ([3]; absence of deoxycoformycin, read-out: T. b. brucei EC50, -Dcf) was 220 ± 10 nM, the EC50 ([3]; presence of 2 µM deoxycoformycin, read-out: T. b. brucei EC50, +Dcf) was 310 ± 70 nM and the “SI (MRC/T.b. rhodesiense)” value [4] was 61. The EC50 ([4]; Trypanosoma brucei, RHODESIENSE, Alamar blue cell viability assay, mean and SEM, read-out: T. b. rhodesiense EC50) was 36 ± 1 nM, the EC50 ([4]; Trypanosoma brucei, RHODESIENSE, source data, read-out: T. brucei rhodesiense EC50, Average) was 36 nM and the EC50 ([4]; Trypanosoma brucei, RHODESIENSE, source data, read-out: T. brucei rhodesiense EC50, single measurements) was 35 nM. The EC50 ([4]; source data, read-out: T. brucei rhodesiense EC50, single measurements) was 33.2 nM and 39.9 nM, the EC50 ([5]; Trypanosoma brucei, mean and SEM, n = 3, read-out: ISMR1 EC50) was 1700 ± 500 nM and the EC50 ([5]; Trypanosoma brucei, source data, read-out: ISMR1 EC50, AVG) was 1670 nM. The EC50 ([5]; Trypanosoma brucei, source data, read-out: ISMR1 EC50, single determinations) was 2150 nM, the “RF (ISMR1)” value ([5]; resistance factor vs Lister 427WT) was 11.1** and the EC50 ([5]; source data, read-out: ISMR1 EC50, single determinations) was 1190 nM. It also gave an EC50 ([6]; Trypanosoma brucei, read-out: TbAT1-KO EC50, mean and SEM, n = 3) of 2610 ± 700 nM, an EC50 ([6]; Trypanosoma brucei, read-out: TbAT1-KO EC50, single determinations, source data) of 3260 nM and an EC50 ([6]; read-out: TbAT1-KO EC50, single determinations, source data) of 1950 nM. The “RF (TbAT1-KO)” value ([6]; resistance factor: ratio of EC50 of resistant and Lister 427WT) was 17.2**, the “acute toxicity in mice” value ([7]; 20 mg/kg over 14 days) was “tolerated with no visible signs of toxicity” and the “acute toxicity in mice” value ([7]; 50 mg/kg) was “lethal”. For the same molecule, the EC50 ([8]; mean and SEM, n = 3, read-out: Lister 427 EC50) was 150 ± 30 nM, the EC50 ([8]; source data, read-out: s427 EC50, AVG) was 151 nM and the “SI (MRC/T.b. brucei)” value (T. brucei Squib 427) was 4. It also gave an EC50 (T. brucei Squib 427; Alamar blue cell viability assay, mean and SEM, read-out: T. b. brucei EC50) of 480 ± 100 nM and an EC50 (T. brucei Squib 427; source data, read-out: T. brucei brucei EC50, Average) of 480 nM.

Molecule “P2 transporter (TbAT1) (Trypanosoma brucei)” has a Km [9] of 0.53 ± 0.02 µM.

B1: T. brucei ADKIN (Trypanosoma brucei brucei TREU927) (protein)
chain: MSSAPLRVYVQCNPLLDVSAHVSDEFLVKYGLERGTAILLSERQKGIFDDIEKMPNVRYVPGGSGLNVARVAQWMQQAYKGKFVTYVGCIADDRYGKVLKEAAEHEGIVMAVEHTTKAGSGACAVCITGKERTLVADLGAANHLSSEHMRSPAVVRAMDESRIFYFSGFTLTVDVNHVLQACRKAREVDGLFMINLSAPFIMQFFSAQLGEVLPYTDIIVANRHEAKEFANMMKWDTDCVEEIARRAVSEVPYTGTKGRVVVFTRDIEPTVIATKDGVETVPVPQLDQDKVIDMNGAGDAFVGGFLSAYAVGKDLRRCCETGHYTAQEVIQQDGCSFPEKPSFSP
Molecule B1 has a Km [10] of 195 ± 24 µM.
